In patent US20070179143A1 (priority 2003, published 2007):

Experiments:
[1] = tested on: SK-OV-3; assay: Cytotoxicity test to cancer cell lines (SRB method), SK-OV-3; assay type: cell-based; conditions: Homo sapiens, SK-OV-3, 48 h, read-out: Cytotoxicity ED50 SK-OV-3
[2] = tested on: SK-MEL-2; assay: Cytotoxicity test to cancer cell lines (SRB method), SK-MEL-2; assay type: cell-based; conditions: Homo sapiens, SK-MEL-2, 48 h, read-out: Cytotoxicity ED50 SK-MEL-2
[3] = tested on: A549; assay: Cytotoxicity test to cancer cell lines (SRB method), A549; conditions: Homo sapiens, A549, 48 h, read-out: Cytotoxicity ED50 A549
Description: (§1) Cytotoxicity to A549 (Korea Research Institute of Chemical Technology), SK-OV-3 (Korea Research Institute of Chemical Technology), SK-MEL-2 (Korea Research Institute of Chemical Technology), HCT-15 (Korea Research Institute of Chemical Technology) and MCF7 (Korean Cell Line Bank, Seoul National University School of medicine) cells was measured by Sulforhodamin-B (SRB) method (1989, National Cancer Institute (NCI)) which was developed for the measurement of in vitro anticancer activity of a drug. Cells were separated using 0.25% trypsin-EDTA solution, leading to the preparation of a cell suspension by 5×10^318 2×10^4 cells/well. Then, the suspension was distributed into a 96 well plate by 100 μl/well, which was cultured in a 37° C., 5% CO2 incubator for 24 hours. Compounds prepared in examples of the present invention were used as a sample. Precisely, the compound was dissolved in dimethylsulfoxide and diluted with RPMI 1640 medium before being used as a sample. The final concentration of the sample used varied ranging 1 μM˜0.00001 μM. The medium was removed from the 96 well plate and then diluted sample solution was added by 100 μl/well, followed by further culture in a 37° C., 5% CO2 incubator for 48 hours. Tz (time zero) plate was collected from the point of adding the sample. Upon completing the culture, the medium was removed from each well along with Tz plate, then 10% trichloroacetic acid (TCA) was added by 100 μl/well. The plate was left at 4° C. for 1 hour to let cells be fixed on the floor of the plate. After cells were fixed completely, the plate was washed with water 5-6 times to remove the remaining trichloroacetic acid solution completely and moisture was completely dried at room temperature. 0.4% Sulforhodamine-B was dissolved in 1% acetic acid solution to prepare a staining solution. Cells were stained for 30 minutes with a dye added by 100 μl to each well of the completely dried plate. Then, the plate was washed with 1% acetic acid solution 5-6 times to remove sulforhodamine-B remained uncombined with cells. Then, the plate was dried at room temperature. 10 mM Tris solution was added by 100 μ/well thereto to dissolve the dye, and optical density (OD) was measured at 520 nm with a micro plate reader.
(§2) ED50 (concentration that inhibits cancer cell growth 50%, 5.0% effective dose, nM/ml) of the sample to cancer cell was calculated as follows. OD value at the point of beginning the culture with the sample was determined as Tz (time zero) value. OD value of a well to be cultured without the sample was determined as a control value (C). OD value of a well pretreated with the sample was determined as experimental value (T). After calculating Tz, C and T, cytotoxicity of the sample was measured by the below <Mathematical Formula 1>. T≦Tz, (T−Tz)/(C−Tz)×100 T>Tz, (T−Tz)/Tz×10,0 <Mathematical Formula 1>
(§3) ED50, the concentration that can inhibit cancer cell growth by 50%, was calculated by using a regression analysis of lotus program based on the degree of cytotoxicity obtained by the <Mathematical Formula 1>.

[4] = tested on: MCF7; assay: Cytotoxicity test to cancer cell lines (SRB method), MCF7; conditions: read-out: Cytotoxicity ED50 MCF-7, MCF-7, 48 hours
[5] = tested on: HCT-15; assay: Cytotoxicity test to cancer cell lines (SRB method), HCT-15; conditions: Homo sapiens, HCT-15, 48 h, read-out: Cytotoxicity ED50 HCT15
Description: as §1, §2, §3

| Compound | EC50 [1] | EC50 [2] | EC50 [3] | EC50 [4] | EC50 [5] |
| --- | --- | --- | --- | --- | --- |
| COc1c(OC2CCCC2)cc2c(c1OC)-c1ccc(SC)c(=O)cc1[C@@H](NC(=O)c1cccc(CO[N+](=O)[O-])c1F)CC2 [Example 11, N-[(7S)-3-cyclopentyloxy-1,2-dimethoxy-10-methylsulfanyl-9-oxo-5,6,7,9-tetrahydro-benzo[a]heptalen-7-yl]-2-fluoro-3-nitrooxymethyl-benzamide] | > 50 nM | > 50 nM | > 50 nM | 39 nM | > 50 nM |
| CCOc1cc2c(c(OC)c1OC)-c1ccc(SC)c(=O)cc1[C@@H](NC(=O)c1cc(F)cc(CO[N+](=O)[O-])c1)CC2 [Example 13, N-[(7S)-3-ethoxy-1,2-dimethoxy-10-methylsulfanyl-9-oxo-5,6,7,9-tetrahydro-benzo[a]heptalen-7-yl)-3-fluoro-5-nitrooxymethyl-benzamide] | 0.18 nM | 0.04 nM | 0.13 nM | 0.02 nM | 0.11 nM |
| COc1cc2c(c(OC)c1OC)-c1ccc(SC)c(=O)cc1[C@@H](NC(=O)c1ccc(CO[N+](=O)[O-])o1)CC2 [Example 2, 5-nitrooxymethyl-furan-2-carboxylic acid-[(7S)-1,2,3-trimethoxy-10-methylsulfanyl-9-oxo-5,6,7,9-tetrahydro-benzo[a]heptalen-7-yl]-amide] | 9.3 nM | 5.4 nM | 15.8 nM | 2.9 nM | 2.3 nM |
| COc1cc2c(c(OC)c1OC)-c1ccc(OC)c(=O)cc1[C@@H](NC(=O)c1cc(F)cc(CO[N+](=O)[O-])c1)CC2 [Example 40, 3-fluoro-5-nitrooxymethyl-N-[(7S)-1,2,3,10-tetramethoxy-9-oxo-5,6,7,9-tetrahydro-benzo[a]heptalen-7-yl]-benzamide] | 45.6 nM | 60.7 nM | 43.9 nM | 10.5 nM | 24.3 nM |
| COc1c(OC(C)C)cc2c(c1OC)-c1ccc(SC)c(=O)cc1[C@@H](NC(=O)c1cc(F)cc(CO[N+](=O)[O-])c1)CC2 [Example 14, 3-fluoro-N-[(7S)-3-isopropoxy-1,2-dimethoxy-10-methylsulfanyl-9-oxo-5,6,7,9-tetrahydro-benzo[a]heptalen-7-yl]-5-nitrooxymethyl-benzamide] | 30.6 nM | 32.8 nM | 28.2 nM | 11.2 nM | 9.9 nM |
| COc1cc2c(c(OC)c1OC)-c1ccc(SC)c(=O)cc1[C@@H](NC(=O)c1sccc1CO[N+](=O)[O-])CC2 [Example 22, 3-nitrooxymethyl-thiophene-2-carboxylic acid [(7S)-1,2,3-trimethoxy-10-methylsulfanyl-9-oxo-5,6,7,9-tetrahydro-benzo[a]heptalen-7-yl]-amide] | 1.41 nM | 0.87 nM | 1.11 nM | 0.21 nM | 0.95 nM |
| COc1c(OC2CCCC2)cc2c(c1OC)-c1ccc(SC)c(=O)cc1[C@@H](NC(=O)c1cccc(CO[N+](=O)[O-])c1)CC2 [Example 7, N-[(7S)-3-cyclopentyloxy-1,2-dimethoxy-10-methylsulfanyl-9-oxo-5,6,7,9-tetrahydro-benzo[a]heptalen-7-yl]-3-nitrooxymethyl-benzamide] | > 50 nM | > 50 nM | > 50 nM | > 50 nM | > 50 nM |
| COc1cc2c(c(OC)c1OC)-c1ccc(SC)c(=O)cc1[C@@H](NC(=O)c1ccc(CO[N+](=O)[O-])s1)CC2 [Example 6, 5-nitrooxymethyl-thiophene-2-carboxylic acid-[(7S)-1,2,3-trimethoxy-10-methylsulfanyl-9-oxo-5,6,7,9-tetrahydro-benzo[a]heptalen-7-yl]-amide] | 0.37 nM | 0.08 nM | 0.7 nM | 0.16 nM | 0.27 nM |
| COc1cc2c(c(OC)c1OC)-c1ccc(SC)c(=O)cc1[C@@H](N(C)C(=O)c1cccc(CO[N+](=O)[O-])c1)CC2 [Example 41, 3-nitrooxymethyl-N-methyl-N-[(7S)-1,2,3-trimethoxy-10-methylsulfanyl-9-oxo-5,6,7,9-tetrahydro-benzo[a]heptalen-7-yl]-benzamide] | > 50 nM | > 50 nM | > 50 nM | 47.3 nM | 36.4 nM |
| COc1cc2c(c(OC)c1OC)-c1ccc(SC)c(=O)cc1[C@@H](NC(=O)c1ccccc1SN=O)CC2 [Example 35, 2-nitrosothio-N-[(7S)-1,2,3-trimethoxy-10-methylsulfanyl-9-oxo-5,6,7,9-tetrahydro-benzo[a]heptalen-7-yl]-benzamide] | > 50 nM | 41.9 nM | > 50 nM | 24.7 nM | 20.9 nM |
| COc1cc2c(c(OC)c1OC)-c1ccc(SC)c(=O)cc1[C@@H](NC(=O)c1cc(F)cc(CSN=O)c1)CC2 [Example 39, 3-fluoro-5-nitrosothiomethyl-N-[(7S)-1,2,3-trimethoxy-10-methylsulfanyl-9-oxo-5,6,7,9-tetrahydro-benzo[a]heptalen-7-yl]-benzamide] | 28.2 nM | > 50 nM | 40.7 nM | 5 nM | 9.9 nM |
| COc1cc2c(c(OC)c1OC)-c1ccc(SC)c(=O)cc1[C@@H](NC(=O)c1cccc(CO[N+](=O)[O-])c1F)CC2 [Example 10, 2-fluoro-3-nitrooxymethyl-N-[(7S)-1,2,3-trimethoxy-10-methylsulfanyl-9-oxo-5,6,7,9-tetrahydro-benzo[a]heptalen-7-yl]-benzamide] | 0.23 nM | 0.12 nM | 0.28 nM | 0.09 nM | 0.39 nM |
| COc1cc2c(c(OC)c1OC)-c1ccc(SC)c(=O)cc1[C@@H](NC(=O)c1cccc(COC(=O)CCCO[N+](=O)[O-])c1)CC2 [Example 34, 4-nitrooxybutyric acid-3-[(7S)-1,2,3-trimethoxy-10-methylsulfanyl-9-oxo-5,6,7,9-tetrahydro-benzo[a]heptalen-7-yl-carbamoyl]-benzylester] | 0.01 nM | 0.01 nM | 0.06 nM | 0.01 nM | 0.01 nM |
| COc1c(OC(C)C)cc2c(c1OC)-c1ccc(SC)c(=O)cc1[C@@H](NC(=O)c1cccc(CO[N+](=O)[O-])c1F)CC2 [Example 9, 2-fluoro-N-[(7S)-3-isopropoxy-1,2-dimethoxy-10-methylsulfanyl-9-oxo-5,6,7,9-tetrahydro-benzo[a]heptalen-7-yl]-3-nitrooxymethyl-benzamide] | 0.34 nM | 0.22 nM | 0.49 nM | 0.13 nM | 0.64 nM |
| COc1c(OC2CCCC2)cc2c(c1OC)-c1ccc(SC)c(=O)cc1[C@@H](NC(=O)c1cc(F)cc(CO[N+](=O)[O-])c1)CC2 [Example 15, N-[(7S)-3-cyclopentyloxy-1,2-dimethoxy-10-methylsulfanyl-9-oxo-5,6,7,9-tetrahydro-benzo[a]heptalen-7-yl]-3-fluoro-5-nitrooxymethyl-benzamide] | > 50 nM | 22.5 nM | 30.2 nM | 18.8 nM | 23.4 nM |
| COc1c(OC(C)C)cc2c(c1OC)-c1ccc(SC)c(=O)cc1[C@@H](NC(=O)c1cccc(CO[N+](=O)[O-])c1)CC2 [Example 3, N-[(7S)-3-isopropoxy-1,2-dimethoxy-10-methylsulfanyl-9-oxo-5,6,7,9-tetrahydro-benzo[a]heptalen-7-yl]-3-nitrooxymethyl-benzamide] | 4 nM | 1 nM | 2.4 nM | 2.3 nM | 4.8 nM |
| COc1cc2c(c(OC)c1OC)-c1ccc(SC)c(=O)cc1[C@@H](NC(=O)c1ccc(CO[N+](=O)[O-])cc1O)CC2 [Example 20, 2-hydroxy-4-nitrooxymethyl-N-[(7S)-1,2,3-trimethoxy-10-methylsulfanyl-9-oxo-5,6,7,9-tetrahydro-benzo[a]heptalen-7-yl]-benzamide] | 1.83 nM | 2.47 nM | 3.93 nM | 1.15 nM | 1.03 nM |
| COc1cc2c(c(OC)c1OC)-c1ccc(SC)c(=O)cc1[C@@H](NC(=O)c1cc(CO[N+](=O)[O-])cc(CO[N+](=O)[O-])c1)CC2 [Example 19, 3,5-bis-nitrooxymethyl-N-[(7S)-1,2,3-trimethoxy-10-methylsulfanyl-9-oxo-5,6,7,9-tetrahydro-benzo[a]heptalen-7-yl]-benzamide] | 34.8 nM | 31 nM | 23.5 nM | 8.2 nM | 10.1 nM |
